The source of these data is PMC4028696, “Development of a screen to identify selective small molecules active against patient-derived metastatic and chemoresistant breast cancer cells” (Breast Cancer Research : BCR, 2013).

Where a name gives a salt, the structure may show the parent alone. Peptide text beside a SMILES is read from it. * marks the point of attachment. Cbz = O=C(OCc1ccccc1)*; CH2F = FC*

Common to all, as to assay type: cell-based, human
One test concerns T47D cells. The test is described as follows: Dose response assay, ATPlite viability, four days. The note with it: four days of treatment, ATP viability. The protocol:
(§1) Cells were seeded in white 96-well plates (Costar, Tewksbury, MA, USA) in 100 μL of their respective media at varying densities to achieve 80% to 90% confluency after five days in culture. The compounds dissolved in DMSO were diluted in their corresponding media containing 2% FBS and an EP Motion 5075 (Eppendorf North America, Hauppauge, NY, USA) liquid handler was utilized to perform a serial dilution. […] After the cells were cultured for 24 hours, the media were aspirated and the cells were treated with the compounds and vehicle controls in triplicate. After four days of treatment, viability was determined utilizing the ATPlite 1step assay system (Perkin Elmer, Waltham, MA, USA) according to the manufacturer's instructions. Luminescence measurements were acquired utilizing a Perkin Elmer 2104 EnVision plate reader. Raw luminescence values were normalized to the DMSO vehicle control wells.

Test [1] concerns MCF-7 cells. As to the kind of experiment: Dose response assay, ATPlite viability, four days. The note with it: MCF-7, four days of treatment, ATP viability. The protocol:
as §1

In a further test the test system is PE1007070 cells. As to the kind of experiment: Dose response assay, ATPlite viability, four days. The settings on record: PE1007070, four days of treatment, ATP viability. The protocol: as §1
For orientation: ATP-based viability assays read luminescence as a measure of living cells.

For the next test, the system named is PE904557a cells. The test is described as follows: Dose response assay, ATPlite viability, four days. The settings on record: four days of treatment, ATP viability, N/A = data could not be fitted. The protocol: as §1
A further test deals with PE1008032 cells. As to the kind of experiment: Dose response assay, ATPlite viability, four days. The note with it: PE1008032, four days of treatment, ATP viability. Here is the method: as §1
A further test concerns MDA-MB-231 cells. The test is described as follows: Dose response assay, ATPlite viability, four days. The note with it: MDA-MB-231, four days of treatment, ATP viability. The protocol: as §1
Test [2] relates to MCF-7 cells. As to the kind of experiment: Pan-caspase inhibitor effect on C-6 induced cell death. The settings on record: data not shown.
The next test concerns LC3A/B-II. The test is described as follows: Western blot for LC3A/B-II (autophagy). The note with it: most cells, 50 μM, 24 hours. Here is the method: Cells were lysed in cold radioimmunoprecipitation assay buffer (50 mM Tris HCl, 150 mM NaCl, 0.1% sodium dodecyl sulfate (SDS), 0.5% sodium deoxycholate, 1% Triton X-100, pH = 8.0) supplemented with protease inhibitor cocktail (Sigma), phosphatase inhibitor cocktail 2 (Sigma) and 1 mM dithiothreitol (DTT) (Sigma). The lysate was sonicated for 30 seconds using a 450 Sonifier (Branson Ultrasonics, Danbury, CT, USA) and was centrifuged at 14,000 RPM for five minutes at 4°C. The protein concentration was determined using the BCA protein assay kit (Peirce, Rockford, IL, USA) and the samples were boiled for five minutes with 4× SDS Laemmli buffer. Equal amounts of protein were resolved on SDS polyacrylamide gels and transferred to an Immobilon-FL PVDF membrane (EMD Millipore). Blots were blocked in Odyssey Blocking Buffer (LI-COR, Lincoln, NE, USA) for one hour at room temperature, stained with primary antibodies overnight at 4°C, washed, and stained with IR800CW or IR680 anti-mouse or rabbit secondary antibodies (LI-COR) for one hour at room temperature. Blots were imaged with the Odyssey Infrared Imaging System (LI-COR).
For orientation: Immunoblotting shows a protein as a band on a membrane.

The mark [3] stands for this setting: Homo sapiens, 96 h, N/A = data could not be fitted.

Broadly, the EC50 is the concentration that produces a half-maximal response. A high value points to a need for much substance. With `C=CCNC1=C2C[C@@H](C)C[C@H](OC)[C@H](O)[C@@H](C)/C=C(\C)[C@H](OC(N)=O)[C@@H](OC)/C=C\C=C(/C)C(=O)NC(=CC1=O)C2=O` [17-AAG, 17-(allylamino)-17-demethoxygeldanamycin], the EC50 with T47D cells amounted to 1410 nM; with MCF-7 cells [1], 867 nM; with PE1007070 cells, 1150 nM; in the test on PE904557a cells, 36.8 nM; in the test with PE1008032 cells, 1660 nM; in the test on MDA-MB-231 cells it was 1500 nM.
`CC(C)C[C@H](NC(=O)[C@H](Cc1ccccc1)NC(=O)c1cnccn1)B(O)O` [Bortezomib, bortezomib]: the EC50 in the test with T47D cells (Homo sapiens, 96 h) was 33 nM; in the test with MCF-7 cells [1] (Homo sapiens, MCF7, 96 h), 5.71 nM; in the test on PE1007070 cells (setting [3]), 14.6 nM; with PE904557a cells (Homo sapiens, 96 h), 32 nM; in the test on PE1008032 cells (setting [3]), 3.33 nM; in the test with MDA-MB-231 cells (Homo sapiens, 96 h) it was 35 nM.
For `N.N.[Cl][Pt][Cl]` [Cisplatin, cis-diammineplatinum (II) dichloride], the EC50 in the test on T47D cells was 50200 nM; with MCF-7 cells [1] it was 8670 nM; with PE1007070 cells it was 10100 nM; with PE1008032 cells, 19400 nM; with MDA-MB-231 cells, 6880 nM.
Consider `COc1cccc2c1C(=O)c1c(O)c3c(c(O)c1C2=O)C[C@@](O)(C(=O)CO)C[C@@H]3O[C@H]1C[C@H](N)[C@H](O)[C@H](C)O1` [Doxorubicin, doxorubicin hydrochloride], for which the EC50 with T47D cells (Homo sapiens, 96 h) is 192 nM; in the test on MCF-7 cells [1] (Homo sapiens, MCF7, 96 h), 261 nM; with PE1007070 cells (setting [3]) it was 677 nM; in the test on PE904557a cells (Homo sapiens, 96 h), 736 nM; with PE1008032 cells (setting [3]) it was 346 nM; with MDA-MB-231 cells (Homo sapiens, 96 h), 110 nM.
As for `Nc1ccn([C@@H]2O[C@H](CO)[C@@H](O)C2(F)F)c(=O)n1` [Gemcitabine, gemcitabine hydrochloride], the EC50 was 6.29 nM with T47D cells (Homo sapiens, 96 h); 2.73 nM in the test on MCF-7 cells [1] (Homo sapiens, MCF7, 96 h); 9.63 nM with MDA-MB-231 cells (Homo sapiens, 96 h).
For the molecule `Cc1[nH]c2ccccc2c1CCNCc1ccc(/C=C/C(=O)NO)cc1` [LBH589, panobinostat], the EC50 with T47D cells (Homo sapiens, 96 h) is 31 nM; with MCF-7 cells [1] (Homo sapiens, MCF7, 96 h), 21.6 nM; in the test with PE1007070 cells (setting [3]) it was 185 nM; in the test on PE904557a cells (Homo sapiens, 96 h), 90.5 nM; in the test with PE1008032 cells (setting [3]) it was 13.7 nM; in the test on MDA-MB-231 cells (Homo sapiens, 96 h), 23.1 nM.
In the case of `CC(=O)O[C@H]1C(=O)[C@@]2(C)[C@H]([C@H](OC(=O)c3ccccc3)[C@]3(O)C[C@H](OC(=O)[C@H](O)[C@@H](NC(=O)c4ccccc4)c4ccccc4)C(C)=C1C3(C)C)[C@]1(OC(C)=O)CO[C@@H]1C[C@@H]2O` [Taxol, paclitaxel], the concentration for a half-maximal effect (EC50) in the test with T47D cells (Homo sapiens, 96 h) worked out at 13.7 nM; in the test on MCF-7 cells [1] (Homo sapiens, MCF7, 96 h) it was 0.299 nM; in the test on MDA-MB-231 cells (Homo sapiens, 96 h), 2.52 nM.
Take `COC(=O)C[C@H](NC(=O)[C@H](C)NC(=O)[C@@H](NC(=O)OCc1ccccc1)C(C)C)C(=O)CF` [Z-VAD-FMK] (Cbz-Val-Ala-Asp(OMe)-CH2F): in the test with MCF-7 cells [2], the “effect on C-6 induced cell death” value was “did not affect”.
`CCN(CC)CCCC(C)Nc1ccnc2cc(Cl)ccc12` (stereo not shown) [chloroquine, Chloroquine]: the LC3A/B-II levels entry in the test on LC3A/B-II is given as “significant increase”.
